This assay concerns the target AChE enzyme from Electrophorus electricus (electric eel) (Electrophorus electricus, UniProt O42275). Kind of assay: In vitro AChE inhibition, Ellman spectrophotometric procedure. It is filed as biochemical. To be noted: for IC50: IC50 against AChE, dose dependent assay, 412 nm; for inhibition at 100 µM: read-out: AChE inhibition, mean of R1-R3. In general terms: In Ellman's method for cholinesterases, released thiocholine reacts with DTNB.

Each structure is given as a SMILES string.

AChE enzyme from Electrophorus electricus (electric eel), sequence (O42275 24-633): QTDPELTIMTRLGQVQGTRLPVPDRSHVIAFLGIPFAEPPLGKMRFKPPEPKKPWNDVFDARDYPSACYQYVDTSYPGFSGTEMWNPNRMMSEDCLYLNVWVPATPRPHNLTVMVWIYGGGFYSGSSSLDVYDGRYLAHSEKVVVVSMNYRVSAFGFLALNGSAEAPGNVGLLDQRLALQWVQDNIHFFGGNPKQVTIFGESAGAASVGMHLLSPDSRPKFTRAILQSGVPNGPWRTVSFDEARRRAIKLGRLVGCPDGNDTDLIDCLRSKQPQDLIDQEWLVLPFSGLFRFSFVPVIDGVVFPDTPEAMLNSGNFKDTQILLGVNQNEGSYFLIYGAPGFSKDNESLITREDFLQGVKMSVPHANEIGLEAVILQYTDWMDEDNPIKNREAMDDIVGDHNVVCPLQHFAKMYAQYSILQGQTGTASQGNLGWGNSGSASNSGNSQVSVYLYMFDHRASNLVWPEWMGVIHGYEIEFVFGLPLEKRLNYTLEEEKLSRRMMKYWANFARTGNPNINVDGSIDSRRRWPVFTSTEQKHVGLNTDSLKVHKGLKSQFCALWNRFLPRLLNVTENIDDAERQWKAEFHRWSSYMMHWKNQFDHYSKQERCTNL

The term IC50 denotes the concentration at which inhibition is half-maximal. Low values mean greater potency in that assay, high ones weaker potency in that assay. The term inhibition denotes the change of the read-out against control, counted positive when it falls. As to `O=c1cc(-c2ccc(O)cc2)oc2cc(O)cc(O)c12` [Apigenin], the IC50 worked out at 13.8 µM and the inhibition at 100 µM was 80%.

As for `O=c1c(O)c(-c2ccc(O)c(O)c2)oc2cc(O)cc(O)c12` [Quercetin], the inhibition at 100 µM was 85.7%.

For `COc1c(O)cc(O)c2c(=O)cc(-c3ccccc3)oc12` [Wogonin], 15.5 µM corresponded to half-maximal inhibition (IC50) and the inhibition at 100 µM turned out to be 80.3%.

Source of the values: paper PMC10637926 (Heliyon, 2023).
